Like-named read-outs stand apart in the source and are kept apart here.
Key:
JAK3 = target: T1, JAK3 (Homo sapiens, UniProt P52333); experiment: JAK3 biochemical assay (ADP-GLO Kinase Assay); conditions: for JAKs/HPK1 IC50 Ratio, B* / JAKs/HPK1 IC50 Ratio, N*: ratio of JAK3 IC50 to HPK1 IC50; for JAKs/HPK1 IC50 Ratio, B*: first testing facility; for JAKs/HPK1 IC50 Ratio, N*: second testing facility
T1 construct: purchased Thermo fisher PV3855
Procedure: Biology Example 4 JAK3 Biochemical Assay
This example used the ADP-GLO™ Kinase Assay to measure the effect of potential HPK1 inhibitor compounds on JAK3 kinase activity. An exemplary experimental setting is described below, though minor adjustments can be made in individual assays.
3. Procedures • 1. Prepare JAK3 kinase buffer • Freshly adding DTT and BSA into Buffer (Final Conc.: 40 mM Tris pH7.5; 20 mM MgCl2, 0.1 mg/ml BSA, 50 μM DTT).
• 2. Compounds Preparation • For tested compounds: compounds were diluted to 1 mM, by mixing 5 μL of 10 mM compound stocks to 45 μL DMSO. The compounds solutions were then serially diluted 3-fold for 10 doses. The top compound concentration was 1 mM (100×), DMSO concentration was 100%. • 50 nL of each of 10 doses of diluted compound were added to 384-well assay plate (Corning #4512) by ECHO. • For positive control, 50 nL of 1 mM reference compound were added to 384-well assay plate (Corning #4512) by ECHO. • For negative control: 50 nL of DMSO was transferred into 384-well assay plate as a negative control. • The assay plate was centrifuged at 1,500 rpm for 1 minute. • 3. Compounds were Transferred by ECHO Following the Layout Below: • Reference and test compounds 1-15: serial 3-fold dilution from 10 μM to 0.508 nM (10 doses); negative control is 0.78 ng JAK3, 4 μM ATP & 0.2 μg/μL poly, 1% DMSO; positive control is the top dose of the reference compound, 0.78 ng JAK3, 0.2 μg/μL Poly(E4Y1), 4 μMATP, 1% DMSO. • 4. Add 2.5 μL/well of 2×JAK3 working solution using pipette (Thermo, 30 μL multi-channel), Centrifuge at 1,500 rpm for 1 minute. • 5. Add 2.5 μL/well of 2×ATP-Poly(E4Y1) working mixture using pipette (Thermo, 30 μL multi-channel), Centrifuge at 1,500 rpm for 1 minute. • 6. Incubate the assay plate at 25° C. for 60 min. • 7. Add 5 μL/well ADP-GLO™ Reagent by BRAVO to stop the kinase reaction and deplete the unconsumed ATP after 1 hour. Centrifuge at 1,500 rpm for 1 minute. Incubate at 25° C. for 40 min. • 8. Add 10 uL of Kinase Detection Reagent by BRAVO to convert ADP to ATP. Centrifuge at 1,500 rpm for 1 minute. Incubate at 25° C. for 40 min. • 9. Record luminescence signal on an Envision plate reader (384-USL). • 10. Process data using XL-fit. Inhibition %=[1-(test well−Negative control)/(positive control−Negative control)]*100%. 5. Data Analysis
The percent (%) inhibition at each concentration of compound is calculated based on and relative to the signal in the Negative and Positive control wells contained within each assay plate. The Negative control wells served as 0% inhibition, and the Positive control wells served as 100% inhibition. The concentrations and % inhibition values for tested compounds are plotted and the concentration of compound required for 50% inhibition (IC50) is determined with a Three-parameter logistic dose response equation. The endpoint value (IC50) for the reference peptide/compound is evaluated in each experiment as a quality control measure. If the endpoint value was within 3-fold of the expected value then the experiment was deemed acceptable.

HPK1 = HPK1 (Homo sapiens, UniProt Q92918); experiment: HPK1 biochemical assay (ADP-GLO Kinase Assay)
Sequence of HPK1 (Q92918 whole entry): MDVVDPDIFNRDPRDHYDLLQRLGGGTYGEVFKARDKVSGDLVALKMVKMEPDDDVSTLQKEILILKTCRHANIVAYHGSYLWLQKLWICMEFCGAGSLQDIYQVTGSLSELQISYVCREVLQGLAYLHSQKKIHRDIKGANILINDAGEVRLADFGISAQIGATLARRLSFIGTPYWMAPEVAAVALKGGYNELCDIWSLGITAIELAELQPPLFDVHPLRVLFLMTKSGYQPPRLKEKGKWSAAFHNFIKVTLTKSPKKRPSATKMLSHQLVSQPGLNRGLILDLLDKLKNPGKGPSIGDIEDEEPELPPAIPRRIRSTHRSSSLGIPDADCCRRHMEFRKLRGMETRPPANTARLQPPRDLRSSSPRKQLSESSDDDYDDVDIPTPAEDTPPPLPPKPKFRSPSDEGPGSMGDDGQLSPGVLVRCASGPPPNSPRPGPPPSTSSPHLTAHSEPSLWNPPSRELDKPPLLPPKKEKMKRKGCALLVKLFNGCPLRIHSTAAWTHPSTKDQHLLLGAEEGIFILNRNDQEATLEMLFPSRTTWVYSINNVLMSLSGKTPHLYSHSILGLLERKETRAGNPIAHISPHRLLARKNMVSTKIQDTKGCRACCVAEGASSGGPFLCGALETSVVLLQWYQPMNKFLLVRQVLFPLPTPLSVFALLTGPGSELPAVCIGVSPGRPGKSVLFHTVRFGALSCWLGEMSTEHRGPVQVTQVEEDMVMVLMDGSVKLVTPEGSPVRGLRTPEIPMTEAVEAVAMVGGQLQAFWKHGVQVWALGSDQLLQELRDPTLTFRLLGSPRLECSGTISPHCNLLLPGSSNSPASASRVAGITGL
From the text: IC50 values of any compounds can be determined accordingly over a range of inhibitor concentrations. In addition, the inhibitory effect of the compounds can also be assess using a biological assay, to determine the effect of the compounds on cytokine secretion by T cells following TCR and CD28 stimulation.
Biology Example 1 HPK1 Biochemical Assay
This example used the ADP-GLO™ Kinase Assay to measure the effect of potential HPK1 inhibitor compounds on HPK1 kinase activity.
The ADP-GLO™ Kinase Assay (Promega Corp., Madison, WI) measures ADP formed from a kinase reaction. According to the manufacture, the ADP formed in a kinase assay is first converted into ATP, which is then used to generate light in a luciferase reaction. The luminescence generated correlates with kinase activity. An exemplary experimental setting is described below, though minor adjustments can be made in individual assays.
Serial 3-fold dilution of compounds from 10 μM (top concentration) to 0.508 nM (lowest concentration). Positive control is 10 μM Reference+enzyme+substrate. Negative control is 1% DMSO+enzyme+substrate.
• 1. Buffer Preparation • 40 mM Tris pH7.5; 20 mM MgCl2, 0.1 mg/ml BSA, 50 μM DTT Buffer Stock
Add 20 mL 1M Tris and 10 mL 1M MgCl2 to 470 mL ddH2O to get buffer stock, and stock at RT. • 2. Preparing Fresh 1* Assay Buffer
• 3. Compounds Preparation • 1) The compounds were diluted to 1 mM, by mixing 10 μL of 10 mM respective compound stocks with 90 μL of DMSO. • 2) The compounds were then diluted 3-fold for 10 doses (5 μL to 10 μL dilution) by BRAVO. The top compound conc. was 1 mM (100×), DMSO Conc. was 100%. • 3) Transfer 100 nL of each diluted compound sample to 384-well plate (Corning-4512) by ECHO. • 4) Centrifuge the plate at 1,500 rpm for 1 minute. • 4. Preparation of 2×ATP-MBP Mixture: • 20 μM ATP, 0.2 μg/μL MBP in Kinase Buffer (final concentration: 10 μM ATP, 0.1 MBP)
• 5. Preparation of 2×HPK1 working solution with assay buffer. • HPK1 final concentration was 0.6 ng/μL. […] Incubate at 25° C. for 40 min. • 11. Record luminescence signal on an Envision plate reader (384-CTG). 5. Data Analysis
The percent (%) inhibition at each concentration of compound is calculated based on and relative to the signal in the High and Low control wells contained within each assay plate. […] The concentrations and % inhibition values for tested compounds were plotted and the concentration of compound required for 50% inhibition (IC50) was determined with a Three-parameter logistic dose response equation. The endpoint value (IC50) for the reference peptide/compound was evaluated in each experiment as a quality control measure. If the endpoint value was within 3-fold of the expected value, then the experiment was deemed acceptable.

[1] = B*: testing performed in a first testing facility, read-out: JAK3 IC50 (nM) Relative, B*
[2] = B*: testing performed in a first testing facility, read-out: HPK1 IC50 (nM) Relative, B*
[3] = N*: testing performed in a second testing facility, read-out: JAK3 IC50 (nM) Relative, N*
[4] = N*: testing performed in a second testing facility, read-out: HPK1 IC50 (nM) Relative, N*

T1 sequence (P52333 781-1124 limits assumed): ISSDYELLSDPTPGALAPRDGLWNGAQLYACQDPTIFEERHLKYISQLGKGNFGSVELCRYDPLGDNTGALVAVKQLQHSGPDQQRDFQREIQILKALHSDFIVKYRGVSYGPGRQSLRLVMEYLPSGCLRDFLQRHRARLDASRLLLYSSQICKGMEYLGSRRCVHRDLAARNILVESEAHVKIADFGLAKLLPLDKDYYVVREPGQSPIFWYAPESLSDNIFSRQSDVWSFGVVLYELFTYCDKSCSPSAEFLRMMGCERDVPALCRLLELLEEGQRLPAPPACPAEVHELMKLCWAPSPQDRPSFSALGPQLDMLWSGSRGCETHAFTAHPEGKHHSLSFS

## COc1cc2c(cc1Nc1ncc3ccn(-c4cccnc4C)c3n1)CN(C)CC2 [Example 41, 6-Methoxy-2-methyl-N-(7-(2-methylpyridin-3-yl)-7H-pyrrolo[2,3-d]pyrimidin-2-yl)-1,2,3,4-tetrahydroisoquinolin-7-amine]
JAK3; [1]
  IC50: 100 to 500 nM
JAK3
  JAKs/HPK1 IC50 Ratio, B*: 30
HPK1; [2]
  IC50: ≤ 100 nM

## COc1cc2c(cc1Nc1ncc3ncn(-c4ccccc4)c3n1)CN(C)CC2 [Example 43, 6-Methoxy-2-methyl-N-(9-phenyl-9H-purin-2-yl)-1,2,3,4-tetrahydroisoquinolin-7-amine]
JAK3; [3]
  IC50: > 1000 nM
JAK3
  JAKs/HPK1 IC50 Ratio, N*: >10
HPK1; [2]
  IC50: > 1000 nM
HPK1; [4]
  IC50: > 1000 nM

## COc1cc2c(cc1Nc1ncc3ncn(-c4ccccc4C(=O)N(C)C)c3n1)CN(C)CC2 [Example 44, 2-(2-((6-Methoxy-2-methyl-1,2,3,4-tetrahydroisoquinolin-7-yl)amino)-9H-purin-9-yl)-N,N-dimethylbenzamide]
JAK3; [3]
  IC50: > 1000 nM
JAK3
  JAKs/HPK1 IC50 Ratio, N*: >10
HPK1; [2]
  IC50: > 1000 nM
HPK1; [4]
  IC50: > 1000 nM

## COc1cc2c(cc1Nc1ncc3c(n1)N(c1ccccc1P(C)(C)=O)CCO3)CN(C)CC2 [Example 47, (2-(2-((6-Methoxy-2-methyl-1,2,3,4-tetrahydroisoquinolin-7-yl)amino)-6H-pyrimido[5,4-b][1,4]oxazin-8(7H)-yl)phenyl)dimethylphosphine oxide]
JAK3; [1]
  IC50: > 1000 nM
JAK3
  JAKs/HPK1 IC50 Ratio, B*: >22
HPK1; [2]
  IC50: 100 to 500 nM

## COc1cc2c(cc1Nc1ncc(Cl)c(-c3cncc4ccccc34)n1)CN(C)CC2 [Example 48, N-(5-chloro-4-(isoquinolin-4-yl)pyrimidin-2-yl)-6-methoxy-2-methyl-1,2,3,4-tetrahydroisoquinolin-7-amine]
JAK3; [1]
  IC50: > 1000 nM
JAK3
  JAKs/HPK1 IC50 Ratio, B*: >179
HPK1; [2]
  IC50: ≤ 100 nM

## CCc1c[nH]c2ncc(-c3ccc(C)c(P(C)(C)=O)c3)cc12 [Example 50, (5-(3-Ethyl-1H-pyrrolo[2,3-b]pyridin-5-yl)-2-methylphenyl)dimethylphosphine oxide]
JAK3; [1]
  IC50: > 1000 nM
JAK3; [3]
  IC50: > 1000 nM
JAK3
  JAKs/HPK1 IC50 Ratio, B*: 163
  JAKs/HPK1 IC50 Ratio, N*: 101
HPK1; [2]
  IC50: ≤ 100 nM
HPK1; [4]
  IC50: ≤ 100 nM

## CCc1c[nH]c2ncc(-c3ccc(F)c(P(C)(C)=O)c3)cc12 [Example 51, (5-(3-Ethyl-1H-pyrrolo[2,3-b]pyridin-5-yl)-2-fluorophenyl)dimethylphosphine oxide]
JAK3; [1]
  IC50: > 1000 nM
JAK3
  JAKs/HPK1 IC50 Ratio, B*: 51
HPK1; [2]
  IC50: ≤ 100 nM

## CCc1c[nH]c2ncc(-c3ccc(O)c(P(C)(C)=O)c3)cc12 [Example 55, (5-(3-Ethyl-1H-pyrrolo[2,3-b]pyridin-5-yl)-2-hydroxyphenyl)dimethylphosphine oxide]
JAK3; [1]
  IC50: 100 to 500 nM
JAK3
  JAKs/HPK1 IC50 Ratio, B*: 20
HPK1; [2]
  IC50: ≤ 100 nM

## CCc1c[nH]c2ncc(-c3cc(N)cc(P(C)(C)=O)c3)cc12 [Example 57, (3-Amino-5-(3-ethyl-1H-pyrrolo[2,3-b]pyridin-5-yl)phenyl)dimethylphosphine oxide]
JAK3; [1]
  IC50: 500 to 1000 nM
JAK3
  JAKs/HPK1 IC50 Ratio, B*: 22
HPK1; [2]
  IC50: ≤ 100 nM

## CCc1c[nH]c2ncc(-c3ccc(NC(C)=O)c(P(C)(C)=O)c3)cc12 [Example 58, N-(2-(dimethylphosphoryl)-4-(3-ethyl-1H-pyrrolo[2,3-b]pyridin-5-yl)phenyl)acetamide]
JAK3; [1]
  IC50: 100 to 500 nM
JAK3
  JAKs/HPK1 IC50 Ratio, B*: 4
HPK1; [2]
  IC50: ≤ 100 nM

## CCc1c[nH]c2ncc(-c3ccc(F)c(P(C)(C)=O)c3N)cc12 [Example 60, (2-Amino-3-(3-ethyl-1H-pyrrolo[2,3-b]pyridin-5-yl)-6-fluorophenyl)dimethylphosphine oxide]
JAK3; [1]
  IC50: > 1000 nM
JAK3
  JAKs/HPK1 IC50 Ratio, B*: 25
HPK1; [2]
  IC50: ≤ 100 nM

## CCc1c[nH]c2ncc(-c3ccc(C(F)F)c(P(C)(C)=O)c3)cc12 [Example 61, (2-(Difluoromethyl)-5-(3-ethyl-1H-pyrrolo[2,3-b]pyridin-5-yl)phenyl)dimethylphosphine oxide]
JAK3; [1]
  IC50: > 1000 nM
JAK3
  JAKs/HPK1 IC50 Ratio, B*: 15
HPK1; [2]
  IC50: 100 to 500 nM

## CCc1c[nH]c2ncc(-c3ccc(C)c(P(C)(C)=O)c3F)cc12 [Example 62, (3-(3-Ethyl-1H-pyrrolo[2,3-b]pyridin-5-yl)-2-fluoro-6-methylphenyl)dimethylphosphine oxide]
JAK3; [1]
  IC50: > 1000 nM
JAK3
  JAKs/HPK1 IC50 Ratio, B*: 54
HPK1; [2]
  IC50: ≤ 100 nM

## CCc1c[nH]c2ncc(-c3ccc(-c4ncco4)c(P(C)(C)=O)c3)cc12 [Example 63, (5-(3-Ethyl-1H-pyrrolo[2,3-b]pyridin-5-yl)-2-(oxazol-2-yl)phenyl)dimethylphosphine oxide]
JAK3; [1]
  IC50: > 1000 nM
JAK3
  JAKs/HPK1 IC50 Ratio, B*: 19
HPK1; [2]
  IC50: 100 to 500 nM

## CCc1c[nH]c2ncc(-c3ccc(C)c(P(C)(C)=O)n3)cc12 [Example 64, (6-(3-Ethyl-1H-pyrrolo[2,3-b]pyridin-5-yl)-3-methylpyridin-2-yl)dimethylphosphine oxide]
JAK3; [1]
  IC50: > 1000 nM
JAK3
  JAKs/HPK1 IC50 Ratio, B*: 44
HPK1; [2]
  IC50: ≤ 100 nM

## CCc1c[nH]c2ncc(-c3ccc(CN(C)C)c(P(C)(C)=O)c3)cc12 [Example 65, (2-((Dimethylamino)methyl)-5-(3-ethyl-1H-pyrrolo[2,3-b]pyridin-5-yl)phenyl)dimethylphosphine oxide]
JAK3; [1]
  IC50: > 1000 nM
JAK3
  JAKs/HPK1 IC50 Ratio, B*: >10
HPK1; [2]
  IC50: 500 to 1000 nM

## CCc1c[nH]c2ncc(-c3ccc(N4CCCC4=O)c(P(C)(C)=O)c3)cc12 [Example 66, 1-(2-(Dimethylphosphoryl)-4-(3-ethyl-1H-pyrrolo[2,3-b]pyridin-5-yl)phenyl)pyrrolidin-2-one]
JAK3; [1]
  IC50: > 1000 nM
JAK3
  JAKs/HPK1 IC50 Ratio, B*: 3
HPK1; [2]
  IC50: 100 to 500 nM

Reference: patent US12612424B2, “HPK1 inhibitors and uses thereof” (Regor Pharmaceuticals, Inc., priority 2019, dated 2026)
